In patent US9555038B2, “Heterocycle-substituted tetracyclic compounds and methods of use thereof for the treatment of viral diseases” (Merck Sharp & Dohme Corp., priority 2013, dated 2017):
Where two headings read alike, the source gives them in different places.

Key:
HCV replicon 1A = experiment: Cell-based HCV Replicon Assay A, replicon 1A
Outline: (§1)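 Readout: replicon RNA by real-time RT-PCR, normalised to co-amplified cyclophilin and quantified against replicon total-RNA standard curves. Cells (2000/well) treated 3 days in medium with 5% FBS and 0.5% DMSO, compound in 10 serial dilutions from starting concentrations of 333.3 nM to 1.667 nM.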

HCV replicon 1AQ30D = experiment: Cell-based HCV Replicon Assay B, replicon 1AQ30D
Outline: (§2)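 EC50 defined as the drug concentration giving a CT increase of 1 above projected baseline, from real-time RT-PCR of replicon RNA using genotype-specific primers and probes. Cells were seeded in 5% FBS, dosed after 24 h and incubated 3 days before lysis.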

HCV replicon 1AY93H = experiment: Cell-based HCV Replicon Assay A, replicon 1AY93H; conditions: read-out: 1A Y93H IC50, replicon 1AY93H
Outline: as §1

HCV replicon 2B = experiment: Cell-based HCV Replicon Assay A, replicon 2B
Outline: as §1

HCV replicon 1B = experiment: Cell-based HCV Replicon Assay B, replicon 1B
Outline: as §2

[1] = read-out: 1A Q30D IC50, replicon 1AQ30D
[2] = Hepatitis C virus, read-out: 1A Q30D IC50 (nM), replicon 1AQ30D

COC(=O)N[C@H](C(=O)N1CCC[C@H]1c1ncc(-c2cc(F)c3c(c2)OC(c2cnc(C4(C)CC4)s2)n2c-3cc3cc(-c4cnc([C@@H]5C[C@H]6C[C@H]6N5C(=O)[C@@H](NC(=O)OC)C(C)C)[nH]4)ccc32)[nH]1)C(C)C (single isomer, unassigned) [Compound 453]
IC50 (HCV replicon 1A): 2.3 pM | IC50 (HCV replicon 1AQ30D; [1]): 2.14 nM | IC50 (HCV replicon 1AY93H): 210 pM | IC50 (HCV replicon 2B; read-out: 2B IC50, replicon 2B): 0.65 nM | IC50 (HCV replicon 1B): 2 pM

COC(=O)N[C@H](C(=O)N1CCC[C@H]1c1ncc(-c2cc(F)c3c(c2)OC(c2cnc(C4(C)CCCC4)s2)n2c-3cc3cc(-c4cnc([C@@H]5C[C@H]6C[C@H]6N5C(=O)[C@@H](NC(=O)OC)C(C)C)[nH]4)ccc32)[nH]1)C(C)C (single isomer, unassigned) [Compound 454]
IC50 (HCV replicon 1A; Hepatitis C virus): 2.3 pM | IC50 (HCV replicon 1AQ30D; [2]): 0.047 nM | IC50 (HCV replicon 1AY93H): 2 pM | IC50 (HCV replicon 2B; Hepatitis C virus, read-out: 2B IC50 (nM), replicon 2B): 0.052 nM | IC50 (HCV replicon 1B; Hepatitis C virus): 3.1 pM

COC(=O)NC(C(=O)N1CCC[C@H]1c1ncc(-c2ccc3c(c2)cc2n3C(c3cnc(C4(C)CC4)s3)Oc3cc(-c4cnc([C@@H]5CCCN5C(=O)[C@@H](NC(=O)OC)C(C)C)[nH]4)cc(F)c3-2)[nH]1)C1CCOC(C)(C)C1 (single isomer, unassigned) [Compound 457]
IC50 (HCV replicon 1A; Hepatitis C virus): 3.3 pM | IC50 (HCV replicon 1AQ30D; [1]): 0.07 nM | IC50 (HCV replicon 1AY93H): 7 pM | IC50 (HCV replicon 2B; read-out: 2B IC50, replicon 2B): 0.005 nM | IC50 (HCV replicon 1B; Hepatitis C virus): 3.6 pM

COC(=O)NC(C(=O)N1CCC[C@H]1c1ncc(-c2ccc3c(c2)cc2n3C(c3cnc(C4(C)CC4)s3)Oc3cc(-c4cnc([C@@H]5CCCN5C(=O)[C@@H](NC(=O)OC)C(C)C)[nH]4)cc(F)c3-2)[nH]1)C1CCOC(C)(C)C1 (single isomer, unassigned) [Compound 458]
IC50 (HCV replicon 1A): 3 pM | IC50 (HCV replicon 1AQ30D; [1]): 0.024 nM | IC50 (HCV replicon 1AY93H): 7 pM | IC50 (HCV replicon 2B; read-out: 2B IC50, replicon 2B): 0.007 nM | IC50 (HCV replicon 1B): 3.5 pM

COC(=O)NC(C(=O)N1CCC[C@H]1c1ncc(-c2ccc3c(c2)cc2n3C(c3cnc(C4(C)CC4)s3)Oc3cc(-c4cnc([C@@H]5CCCN5C(=O)[C@@H](NC(=O)OC)C(C)C)[nH]4)cc(F)c3-2)[nH]1)C1C[C@@H](C)O[C@@H](C)C1 (single isomer, unassigned) [Compound 462]
IC50 (HCV replicon 1A): 3.5 pM | IC50 (HCV replicon 1AQ30D; [2]): 0.038 nM | IC50 (HCV replicon 1AY93H): 7 pM | IC50 (HCV replicon 2B; read-out: 2B IC50, replicon 2B): 0.007 nM | IC50 (HCV replicon 1B): 3.1 pM

COC(=O)NC(C(=O)N1[C@@H]2C[C@@H]2C[C@H]1c1ncc(-c2ccc3c(c2)cc2n3C(c3cnc(C4(C)CC4)s3)Oc3cc(-c4cnc([C@@H]5CCCN5C(=O)[C@@H](NC(=O)OC)C(C)C)[nH]4)cc(F)c3-2)[nH]1)C1C[C@@H](C)O[C@@H](C)C1 (single isomer, unassigned) [Compound 463]
IC50 (HCV replicon 1A; Hepatitis C virus): 2.6 pM | IC50 (HCV replicon 1AQ30D; [1]): 0.012 nM | IC50 (HCV replicon 1AY93H): 2 pM | IC50 (HCV replicon 2B; read-out: 2B IC50, replicon 2B): 0.007 nM | IC50 (HCV replicon 1B; Hepatitis C virus): 2.8 pM

COC(=O)NC(C(=O)N1[C@@H]2C[C@@H]2C[C@H]1c1ncc(-c2ccc3c(c2)cc2n3C(c3cnc(C4(C)CC4)s3)Oc3cc(-c4cnc([C@@H]5CCCN5C(=O)[C@@H](NC(=O)OC)C(C)C)[nH]4)cc(F)c3-2)[nH]1)C1C[C@@H](C)O[C@@H](C)C1 (single isomer, unassigned) [Compound 464]
IC50 (HCV replicon 1A): 2.8 pM | IC50 (HCV replicon 1AQ30D; [1]): 1.23 nM | IC50 (HCV replicon 1AY93H): 197 pM | IC50 (HCV replicon 2B; read-out: 2B IC50, replicon 2B): 0.282 nM | IC50 (HCV replicon 1B): 3.4 pM

COC(=O)NC(C(=O)N1[C@@H]2C[C@@H]2C[C@H]1c1ncc(-c2ccc3c(c2)cc2n3C(c3cnc(C4(C)CC4)s3)Oc3cc(-c4cnc([C@@H]5CCCN5C(=O)[C@@H](NC(=O)OC)C(C)C)[nH]4)cc(F)c3-2)[nH]1)C1CCOC(C)(C)C1 (single isomer, unassigned) [Compound 465]
IC50 (HCV replicon 1A; Hepatitis C virus): 2.7 pM | IC50 (HCV replicon 1AQ30D; [1]): 0.022 nM | IC50 (HCV replicon 1AY93H): 2 pM | IC50 (HCV replicon 2B; read-out: 2B IC50, replicon 2B): 0.005 nM | IC50 (HCV replicon 1B; Hepatitis C virus): 3.9 pM

COC(=O)NC(C(=O)N1[C@@H]2C[C@@H]2C[C@H]1c1ncc(-c2ccc3c(c2)cc2n3C(c3cnc(C4(C)CC4)s3)Oc3cc(-c4cnc([C@@H]5CCCN5C(=O)[C@@H](NC(=O)OC)C(C)C)[nH]4)cc(F)c3-2)[nH]1)C1CCOC(C)(C)C1 (single isomer, unassigned) [Compound 466]
IC50 (HCV replicon 1A): 2.7 pM | IC50 (HCV replicon 1AQ30D; [1]): 0.015 nM | IC50 (HCV replicon 1AY93H): 2 pM | IC50 (HCV replicon 2B; read-out: 2B IC50, replicon 2B): 0.005 nM | IC50 (HCV replicon 1B): 3 pM

COC(=O)NC(C(=O)N1[C@@H]2C[C@@H]2C[C@H]1c1ncc(-c2ccc3c(c2)cc2n3C(c3cnc(C4(C)CC4)s3)Oc3cc(-c4cnc([C@@H]5CCCN5C(=O)[C@@H](NC(=O)OC)C(C)C)[nH]4)cc(F)c3-2)[nH]1)C1CCOC(C)(C)C1 (single isomer, unassigned) [Compound 467]
IC50 (HCV replicon 1A): 3 pM | IC50 (HCV replicon 1AQ30D; [1]): 1.4 nM | IC50 (HCV replicon 1AY93H): 209 pM | IC50 (HCV replicon 2B; read-out: 2B IC50, replicon 2B): 0.158 nM | IC50 (HCV replicon 1B): 3.4 pM

COC(=O)NC(C(=O)N1[C@@H]2C[C@@H]2C[C@H]1c1ncc(-c2ccc3c(c2)cc2n3C(c3cnc(C4(C)CC4)s3)Oc3cc(-c4cnc([C@@H]5CCCN5C(=O)[C@@H](NC(=O)OC)C(C)C)[nH]4)cc(F)c3-2)[nH]1)C1CCOC(C)(C)C1 (single isomer, unassigned) [Compound 468]
IC50 (HCV replicon 1A): 3.3 pM | IC50 (HCV replicon 1AQ30D; [1]): 1.23 nM | IC50 (HCV replicon 1AY93H): 155 pM | IC50 (HCV replicon 2B; read-out: 2B IC50, replicon 2B): 0.234 nM | IC50 (HCV replicon 1B): 2.9 pM

COC(=O)NC(C(=O)N1CCC[C@H]1c1ncc(-c2ccc3c(c2)cc2n3C(c3cnc(C4(C)CCCC4)s3)Oc3cc(-c4cnc([C@@H]5CCCN5C(=O)[C@@H](NC(=O)OC)C(C)C)[nH]4)cc(F)c3-2)[nH]1)C1C[C@@H](C)O[C@@H](C)C1 (single isomer, unassigned) [Compound 469]
IC50 (HCV replicon 1A; Hepatitis C virus): 3 pM | IC50 (HCV replicon 1AQ30D; [2]): 0.019 nM | IC50 (HCV replicon 1AY93H): 2 pM | IC50 (HCV replicon 2B; read-out: 2B IC50, replicon 2B): 0.005 nM | IC50 (HCV replicon 1B; Hepatitis C virus): 3.4 pM

COC(=O)NC(C(=O)N1CCC[C@H]1c1ncc(-c2ccc3c(c2)cc2n3C(c3cnc(C4(C)CCCC4)s3)Oc3cc(-c4cnc([C@@H]5CCCN5C(=O)[C@@H](NC(=O)OC)C(C)C)[nH]4)cc(F)c3-2)[nH]1)C1CCOC(C)(C)C1 (single isomer, unassigned) [Compound 471]
IC50 (HCV replicon 1A): 2.8 pM | IC50 (HCV replicon 1AQ30D; [1]): 0.013 nM | IC50 (HCV replicon 1AY93H): 3 pM | IC50 (HCV replicon 2B; read-out: 2B IC50, replicon 2B): 0.004 nM | IC50 (HCV replicon 1B): 3.5 pM

COC(=O)NC(C(=O)N1CCC[C@H]1c1ncc(-c2ccc3c(c2)cc2n3C(c3cnc(C4(C)CCCC4)s3)Oc3cc(-c4cnc([C@@H]5CCCN5C(=O)[C@@H](NC(=O)OC)C(C)C)[nH]4)cc(F)c3-2)[nH]1)C1CCOC(C)(C)C1 (single isomer, unassigned) [Compound 472]
IC50 (HCV replicon 1A): 2.1 pM | IC50 (HCV replicon 1AQ30D; [1]): 2.7 nM | IC50 (HCV replicon 1AY93H): 555 pM | IC50 (HCV replicon 2B; read-out: 2B IC50, replicon 2B): 0.15 nM | IC50 (HCV replicon 1B): 3.6 pM

COC(=O)NC(C(=O)N1[C@@H]2C[C@@H]2C[C@H]1c1ncc(-c2ccc3c(c2)cc2n3C(c3cnc(C4(C)CCCC4)s3)Oc3cc(-c4cnc([C@@H]5CCCN5C(=O)[C@@H](NC(=O)OC)C(C)C)[nH]4)cc(F)c3-2)[nH]1)C1C[C@@H](C)O[C@@H](C)C1 (single isomer, unassigned) [Compound 473]
IC50 (HCV replicon 1A; Hepatitis C virus): 2.6 pM | IC50 (HCV replicon 1AQ30D; [2]): 0.011 nM | IC50 (HCV replicon 1AY93H): 2 pM | IC50 (HCV replicon 2B; read-out: 2B IC50, replicon 2B): 0.01 nM | IC50 (HCV replicon 1B; Hepatitis C virus): 2.8 pM

COC(=O)NC(C(=O)N1[C@@H]2C[C@@H]2C[C@H]1c1ncc(-c2ccc3c(c2)cc2n3C(c3cnc(C4(C)CCCC4)s3)Oc3cc(-c4cnc([C@@H]5CCCN5C(=O)[C@@H](NC(=O)OC)C(C)C)[nH]4)cc(F)c3-2)[nH]1)C1CCOC(C)(C)C1 (single isomer, unassigned) [Compound 475]
IC50 (HCV replicon 1A): 2.4 pM | IC50 (HCV replicon 1AQ30D; [2]): 0.016 nM | IC50 (HCV replicon 1AY93H): 1 pM | IC50 (HCV replicon 2B; read-out: 2B IC50, replicon 2B): 0.008 nM | IC50 (HCV replicon 1B; Hepatitis C virus): 3.9 pM
